pIC50: −log10 of the molar value.
The molecules below were run against T1, human SSTR5 (Homo sapiens, UniProt P35346) (assay: Inositol phosphate (IP1) accumulation assay, antagonist mode). Settings: CHO-K1 cells stably co-expressing human SSTR5 with Gqi5; pre-incubation with antagonist, then SST28 agonist; IP1 HTRF readout.
T1 construct: expressed in transfected cells
Format: cell-based
From the text: Inositol Phosphate Accumulation Assay
CHO-K1 cells stably co-expressing human SSTR5 with Gqi5 were developed using Jump-In technology from Thermo-Fisher. Gqi5 is the mouse G alpha q protein, that was modified to interact with Gi-coupled GPCRs as described previously (Coward, P.; Chan, S. D.; Wada, H. G.; Humphries, G. M.; Conklin, B. R. Chimeric G proteins Allow a High-Throughput Signaling Assay of Gi-Coupled Receptors. Anal Biochem. 1999, 270(2), 242-248).
Co-expression of Gqi5 with SSTR5 allowed monitoring of SSTR5 activity by following IP1 accumulation. The assay was performed in a 384-well plate format using the IP1 assay kit from Cis-Bio in an antagonist mode, i.e., pre-incubation with antagonist following by receptor activation by agonist at a concentration generating 90% of full activation. Frozen cells expressing human SSTR5 were thawed, washed, and then plated in DMEM supplemented with 10% FBS and non-essential amino acids. 40 μL of 2.5×10^5 cells/mL were plated on a Poly D-Lysine coated 384-well white plate. The cells were then incubated for 16 hr. at 37° C./5% CO2. After 16 hour the medium was removed, and 10 μL of stimulation buffer was added to the cells. Test compounds were dissolved in DMSO at concentrations 2000-fold that of the final assay concentrations. 7.5 nL compound solutions were transferred to the cell plates using a Labcyte Echo® acoustic liquid handler. The plates were then incubated for 15 minutes at 37° C./5% CO2. After the first incubation, 5 μL of 30 nM SST28 were added to the cells, and the cells were incubated for 90 minutes at 37° C./5% CO2. 5 μL of detection buffer (prepared as described in the IP-1 kit) was added to each well, and the plates were incubated at RT for 1 hour.
TR-FRET was measured using a ClarioSTAR plate reader, calculating the ratio between emissions at 665 nm and 620 nm (HTRF ratio). The HTRF ratio for positive (Max) and negative (Min) controls were used to normalize HTRF data and generate values for % inhibition. IC50 and maximal inhibition values were determined using a standard 4-parameter fit.

T1 sequence (P35346 whole entry): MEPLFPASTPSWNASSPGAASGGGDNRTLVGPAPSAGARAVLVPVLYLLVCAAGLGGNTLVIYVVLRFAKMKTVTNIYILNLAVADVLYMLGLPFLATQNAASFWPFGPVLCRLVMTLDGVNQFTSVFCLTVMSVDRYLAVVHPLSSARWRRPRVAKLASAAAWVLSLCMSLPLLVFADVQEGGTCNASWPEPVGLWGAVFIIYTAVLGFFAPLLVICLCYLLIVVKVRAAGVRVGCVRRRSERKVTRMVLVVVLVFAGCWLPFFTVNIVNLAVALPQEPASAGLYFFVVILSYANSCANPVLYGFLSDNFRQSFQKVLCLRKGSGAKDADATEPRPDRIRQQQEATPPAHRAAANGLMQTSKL

Compound	pIC50
CCOc1cc(C(=O)OC(C)C)c(C2CC2)cc1CN1CCC2(CC1)CC(=O)N(c1ccc(P(=O)(O)O)cc1)C2 [Compound 24, (4-(8-(5-cyclopropyl-2-ethoxy-4-(isopropoxycarbonyl)benzyl)-3-oxo-2,8-diazaspiro[4.5]decan-2-yl)phenyl)phosphonic acid]	6.00 to 7.00
CCOc1cc(-c2ccc(F)cc2)c(C2CC2)cc1CN1CCC2(CC1)CN(c1ccc(B(O)O)cc1)C(=O)O2 [Compound 13, (4-(8-((2-cyclopropyl-5-ethoxy-4′-fluoro-[1,1′-biphenyl]-4-yl)methyl)-2-oxo-1-oxa-3,8-diazaspiro[4.5]decan-3-yl)phenyl)boronic acid]	≥ 7.00
CCOc1cc(-c2ccc(F)cc2)c(C2CC2)cc1CN1CCC2(CC1)CN(c1ccc(P(C)(=O)O)cc1)C(=O)N2 [Compound 28, (4-(8-((2-cyclopropyl-5-ethoxy-4′-fluoro-[1,1′-biphenyl]-4-yl)methyl)-2-oxo-1,3,8-triazaspiro[4.5]decan-3-yl)phenyl)(methyl)phosphinic acid]	≥ 7.00
CCOc1cc(C(=O)OC)c(C2CC2)cc1CN1CCC2(CC1)CC(=O)N(c1ccc(CCCCNC(=O)CO)cc1)C2 [Compound 19, methyl 2-cyclopropyl-5-ethoxy-4-((2-(4-(4-(2-hydroxyacetamido)butyl)phenyl)-3-oxo-2,8-diazaspiro[4.5]decan-8-yl)methyl)benzoate]	5.30 to 6.00
CCOc1cc(C(=O)OC)c(C2CC2)cc1CN1CCN(C(=O)Oc2ccc(CNC[C@H](O)[C@@H](O)[C@H](O)[C@H](O)CO)cc2)CC1 [Compound 42, 4-((((2S,3R,4R,5R)-2,3,4,5,6-pentahydroxyhexyl)amino)methyl)phenyl 4-(5-cyclopropyl-2-ethoxy-4-(methoxycarbonyl)benzyl)piperazine-1-carboxylate]	< 5.30
CCOc1cc(-c2ccc(F)cc2)c(C2CC2)cc1CN1CCC2(CC1)CN(c1ccc(CNC[C@H](O)[C@@H](O)[C@H](O)[C@H](O)CO)cc1)C(=O)O2 [Compound 32, 8-((2-cyclopropyl-5-ethoxy-4'-fluoro-[1,1'-biphenyl]-4-yl)methyl)-3-(4-((((2S,3R,4R,5R)-2,3,4,5,6-pentahydroxyhexyl)amino)methyl)phenyl)-1-oxa-3,8-diazaspiro [4.5]decan-2-one]	≥ 7.00
CCOc1nc(-c2ccc(F)cc2)c(C2CC2)cc1CN1CCC2(CC1)CN(c1ccc(P(=O)(O)O)cc1)C(=O)O2 [Compound 10, (4-(8-((5-cyclopropyl-2-ethoxy-6-(4-fluorophenyl)pyridin-3-yl)methyl)-2-oxo-1-oxa-3,8-diazaspiro[4.5]decan-3-yl)phenyl)phosphonic acid]	≥ 7.00
CCOc1nc(-c2ccc(F)cc2)c(C2CC2)cc1CN1CCC2(CC1)CN(c1ccc(P(C)(=O)O)cc1)C(=O)O2 [Compound 4, (4-(8-((5-cyclopropyl-2-ethoxy-6-(4-fluorophenyl)pyridin-3-yl)methyl)-2-oxo-1-oxa-3,8-diazaspiro[4.5]decan-3-yl)phenyl)(methyl)phosphinic acid]	≥ 7.00
CCOc1cc(-c2ccc(F)cc2)c(C2CC2)cc1CN1CCN(S(=O)(=O)Cc2ccc(P(=O)(O)OCC)cc2)CC1 [Compound 39, ethyl hydrogen (4-(((4-((2-cyclopropyl-5-ethoxy-4′-fluoro-[1,1′-biphenyl]-4-yl)methyl)piperazin-1-yl)sulfonyl)methyl)phenyl)phosphonate]	≥ 7.00
CCOc1cc(-c2ccc(F)cc2)c(C2CC2)cc1CN1CCC2(CC1)CN(c1ccc(CP(=O)(O)O)cc1)C(=O)O2 [Compound 30, (4-(8-((2-cyclopropyl-5-ethoxy-4'-fluoro-[1,1'-biphenyl]-4-yl)methyl)-2-oxo-1-oxa-3,8-diazaspiro[4.5]decan-3-yl)benzyl)phosphonic acid]	≥ 7.00

The next lines start with the values.

pIC50	Compound
≥ 7.00	CCOc1cc(-c2ccc(F)cn2)c(C2CCC2)cc1CN1CCC2(CC1)CN(c1ccc(P(=O)(O)O)cc1)C(=O)O2 [Compound 35, (4-(8-(5-cyclobulyl-2-ethoxy-4-(5-fluoropyridin-2-yl)benzyl)-2-oxo-1-oxa-3,8-diazaspiro[4.5]decan-3-yl)phenyl)phosphonic acid]
≥ 7.00	CCOc1cc(-c2ccc(F)cc2)c(C2CC2)cc1CN1CCC2(CC1)CN(c1ccc(P(=O)(O)O)cn1)C(=O)O2 [Compound 5, (6-(8-((2-cyclopropyl-5-ethoxy-4′-fluoro-[1,1′-biphenyl]-4-yl)methyl)-2-oxo-1-oxa-3,8-diazaspiro[4.5]decan-3-yl)pyridin-3-yl)phosphonic acid]
≥ 7.00	CCOc1cc(C#N)c(C2CC2)cc1CN1CCC2(CC1)CN(c1ccc(P(C)(=O)O)cc1)C(=O)O2 [Compound 8, (4-(8-(4-cyano-5-cyclopropyl-2-ethoxybenzyl)-2-oxo-1-oxa-3,8-diazaspiro[4.5]decan-3-yl)phenyl)(methyl)phosphinic acid]
≥ 7.00	CCOc1cc(-c2ccc(F)cc2)c(C2CC2)cc1CN1CCN(S(=O)(=O)Cc2ccc(P(=O)(O)O)cc2)CC1 [Compound 38, (4-(((4-((2-cyclopropyl-5-ethoxy-4′-fluoro-[1,1′-biphenyl]-4-yl)methyl)piperazin-1-yl)sulfonyl)methyl)phenyl)phosphonic acid]
≥ 7.00	CCOc1cc(-c2ccc(F)cc2)c(C2CC2)cc1CN1CCC2(CC1)CC(=O)N(c1ccc(P(=O)(O)O)cc1)C2 [Compound 29, (4-(8-((2-cyclopropyl-5-ethoxy-4′-fluoro-[1,1′-biphenyl]-4-yl)methyl)-3-oxo-2,8-diazaspiro[4.5]decan-2-yl)phenyl)phosphonic acid]
≥ 7.00	CCOc1cc(-c2ccc(F)cc2)c(C2CC2)cc1CN1CCC2(CC1)CN(c1ccc(P(=O)(O)O)cc1)C(=O)N2 [Compound 22, (4-(8-((2-cyclopropyl-5-ethoxy-4′-fluoro-[1,1′-biphenyl]-4-yl)methyl)-2-oxo-1,3,8-triazaspiro[4.5]decan-3-yl)phenyl)phosphonic acid]
6.00 to 7.00	CCOc1cc(S(C)(=O)=O)c(C2CC2)cc1CN1CCC2(CC1)CN(c1cccc(CCCCNC(=O)NC(CO)(CO)CO)c1)C(=O)N2 [Compound 31, 1-(4-(3-(8-(5-cyclopropyl-2-ethoxy-4-(methylsulfonyl)benzyl)-2-oxo-1,3,8-triazaspiro[4.5]decan-3-yl)phenyl)butyl)-3-(1,3-dihydroxy-2-(hydroxymethyl)propan-2-yl)urea]
< 5.30	CCOc1cc(C(=O)OC)c(C2CC2)cc1CN1CCC2(CC1)CC(=O)N(c1ccc(CCCCNC(=O)NC(CO)(CO)CO)cc1)C2 [Compound 16, methyl 2-cyclopropyl-4-((2-(4-(4-(3-(1,3-dihydroxy-2-(hydroxymethyl)propan-2-yl)ureido)butyl)phenyl)-3-oxo-2,8-diazaspiro[4.5]decan-8-yl)methyl)-5-ethoxybenzoate]
≥ 7.00	CCOc1cc(-c2ccc(F)cc2)c(C2CC2)cc1CN1CCC2(CC1)CN([C@H]1CC[C@@H](P(=O)(O)O)CC1)C(=O)O2 (single isomer, unassigned) [Compound 33, ((cis)-4-(8-((2-cyclopropyl-5-ethoxy-4'-fluoro-[1,1'-biphenyl]-4-yl)methyl)-2-oxo-1-oxa-3,8-diazaspiro[4.5]decan-3-yl)cyclohexyl)phosphonic acid]
≥ 7.00	CCOc1cc(-c2ccc(F)cc2)c(C2CC2)cc1CN1CCC2(CC1)CN(c1ccc(P(=O)(O)O)nc1)C(=O)O2 [Compound 6, (5-(8-((2-cyclopropyl-5-ethoxy-4′-fluoro-[1,1′-biphenyl]-4-yl)methyl)-2-oxo-1-oxa-3,8-diazaspiro[4.5]decan-3-yl)pyridin-2-yl)phosphonic acid]
6.00 to 7.00	CCOc1cc(C(=O)OC)c(C2CC2)cc1CN1CCC2(CC1)CC(=O)N(c1ccc(CCCCNC=O)cc1)C2 [Compound 17, methyl 2-cyclopropyl-5-ethoxy-4-((2-(4-(4-formamidobutyl)phenyl)-3-oxo-2,8-diazaspiro[4.5]decan-8-yl)methyl)benzoate]
≥ 7.00	CCOc1cc(-c2ccc(F)cc2)c(C2CC2)cc1CN1CCN(C(=O)Cc2ccc(P(=O)(O)O)cc2)CC1 [Compound 41, (4-(2-(4-((2-cyclopropyl-5-ethoxy-4′-fluoro-[1,1′-biphenyl]-4-yl)methyl)piperazin-1-yl)-2-oxoethyl)phenyl)phosphonic acid]
< 5.30	CCOc1cc(C(=O)OC)c(C2CC2)cc1CN1CCC2(CC1)CC(=O)N(c1ccc(P(=O)(O)O)cc1)C2 [Compound 23, (4-(8-(5-cyclopropyl-2-ethoxy-4-(methoxycarbonyl)benzyl)-3-oxo-2,8-diazaspiro[4.5]decan-2-yl)phenyl)phosphonic acid]
